From US12084411B2, “Hinokitiol analogues, methods of preparing and pharmaceutical compositions thereof” (The Board of Trustees of the University of Illinois, priority 2018, dated 2024)
“Also recorded” adds a separate entry of the source.

Columns and labels:
Caco-2 = test: WST-8 toxicity in Caco-2 cells
Experimental: Determination of small molecule-mediated toxicity in Caco-2, MEL, and/or J774 cells was performed according to manufacturer instructions using a WST-8 kit (Cayman Chemical 10010199) similar to previously reported (76) using a 1000× stock of the indicated small molecule in DMSO to give the indicated final concentration.

wild-type yeast (WT) = test: Toxicity to wild type yeast (structure-activity study, FIG. 25)
Experimental: Growth rescue in yeast was performed similar to previously reported (20) using 10 μM hinokitiol in low iron SD liquid media containing 10 μM FeCl3 in a 96-well plate unless otherwise noted. Wild type and fet3Δftr1Δ controls treated with vehicle (DMSO) were performed under identical conditions using the same low iron SD media containing 10 μM FeCl3 in the absence of hinokitiol. Yeast were grown overnight in YPD media and diluted at an OD600 of 0.1 in SD media, diluted 10-fold, and incubated at 30° C. with continuous shaking (200 rpm). The OD600 was obtained 24-48 hours after inoculation unless otherwise noted.
Small molecule dose-response (FIG. 1F) with hinokitiol and C2-deoxy hinokitiol (C2deOHino, see synthesis below) was determined by addition of the small molecule (40X stock solution in DMSO) to give the indicated final concentrations.

DMT1-deficient zebrafish = conditions: two days; for hemoglobinization (GFP-positive erythroids): 1 μM in water from 24 hpf; for number of fish with high hemoglobin levels (o-dianisidine): heterozygous cross of +/cdy fish
Experimental: The morpholinos (MOs) were purchased from GeneTools, LLC (Philomath, OR). The sequences of the MO used were as follows: dmt1 MO: 5′-[…]-3′; mfrnl MO: 5′-[…]-3′. Zebrafish embryos at the 1-cell stage were injected with MOs as previously described (72, 78). o-dianisidine staining for hemoglobinized cells in embryos was as previously described (79). Quantification by flow cytometry using fluorescently labeled erythrocytes from the transgenic Tg(globinLCR:eGFP) line (50) was performed as previously described (72, 75). Semi-quantitative RT-PCR of dmt1 mRNA in morphants was performed using custom designed probes as previously described (80). The sequences of the dmt1 primers are as follows: 5′-[…]-3′ (Fwd); 5′-[…]-3′ (Rev). The sequences of the control actb primers were as follows: 5′-[…]-3′ (Fwd); 5′-[…]-3′ (Rev).
Either mutant or morphant embryos were allowed to develop to >24 hours post fertilization (hpf), then dechorionated with pronase as previously described (81). The dechorionated embryos or morphants were then incubated in the presence of 1 μM hinokitiol (or vehicle) and 10 μM iron (III) citrate for an additional forty-eight hours. Vehicle treated embryos were exposed to […]. C2deOHino (1 μM) with iron (III) citrate (10 μM) was used as a negative control. Control and either mutant or morphant embryos at ˜72 hpf were either (a) directly stained by o-dianisidine (79) or (b) mechanically homogenized as previously described for flow cytometry (75, 78).

J774 macrophages = test: Temporal imaging of cytosolic iron levels in J774 macrophages; type: cell-based, mouse; conditions: for calcein green fluorescence after reversal of the gradient: external FeCl3 100 μM at t=12 min; for calcein green fluorescence after small molecule addition: iron-loaded cells, 100 μM small molecule at t=5 min
Experimental: To assess for the capacity for hinokitiol to reversibly and autonomously transport iron across the plasma membrane through the creation of artificial iron gradients, J774 macrophages were grown in Ibidi dishes (Ibidi NC0723624) to ˜80% confluency before incubation with J774 Complete media containing 5 mM ascorbic acid and 200 μM FeSO4. The cells were incubated for 1.5 hours, media was aspirated, and the cells were rinsed with PBS. The cells were then incubated with calcein green-AM (1 μM) in DMEM for 20 minutes at 37° C. The media was aspirated and cells were rinsed (×2) with PBS before DMEM (pH=7.4 in 10 mM HEPES) and 1 mM probenecid (Sigma P8761) was added. Calcein green fluorescence was then imaged on a LSM880 microscope at 37° C. with 5% CO2 at the indicated time points for 30 minutes. Hinokitiol (100 μM final concentration), C2deOHino (100 μM final concentration), or DMSO (all from 1000X stocks in 50 μL DMEM) were added at 5 minutes, and a solution of FeCl3 (100 μM final concentration, in 50 μL DMEM) was added at 12 minutes. Fluorescence in each image at each time point was analyzed by ImageJ analysis then normalized to the fluorescence at t=0 for each image using >100 cells per experiment.

[1] = Determination of small molecule iron binding (UV-Vis); conditions: pH 7.0
Experimental: Small molecule iron (III) binding was determined by UV-Vis spectroscopy of small molecules (30 μM) before and after addition of FeCl3 (10 μM) or iron (III) citrate (10 μM, Sigma F3388) in 10 mM MES/Tris buffer at pH=7.0. Iron (II) binding was determined by UV-Vis spectroscopy of small molecules (30 μM) and FeCl2 (10 μM) in a 25 mM MES/Tris buffer at pH=7.0 containing 62.5 mM sodium ascorbate.

[2] = test system: Mfrn1-deficient MEL cells; test: Hemoglobinization of Mfrn1-deficient MEL cells; type: cell-based, mouse; conditions: 1 μM
Experimental: Differentiation of MEL Cells with DMSO (FIG. 3D) To perform differentiation experiments with MEL cells (39), the indicated MEL cells were diluted to 1×10^5 cells/mL in MEL Complete media containing 10 μM iron (III) citrate and 2% DMSO in the absence or presence of 1 μM hinokitiol or C2deOHino (added from 1000X stock in DMSO) in 12-well plates. Cells were then incubated at 37° C. for 72 hours unless otherwise noted.
Hemoglobinized MEL cells were quantified three days after DMSO induction through o-dianisidine staining similar to previously reported (74). Cells were centrifuged three days after induction and rinsed with PBS. […] The number of stained cells were then quantified via ImageJ analysis and compared to the number of total cells in each image. […]
MEL cells were induced for differentiation as described above and incubated at 37° C. for 70 hours before addition of a saturated iron-transferrin (^55Fe2Tf) solution (40 nM final concentration from a 10 μM ^55Fe2Tf stock). […] After completion, the cells were counted with a hemocytometer, the media was removed after centrifugation, the cells were rinsed with PBS (×3), and the cell suspension was diluted in scintillation cocktail and radioactivity was determined. […] After completion, the cells were counted with a hemocytometer, the media was removed after centrifugation, and the cells were rinsed with PBS (×3). […]

[3] = DMT1-deficient morphant zebrafish

Structure (SMILES)	observable toxicity (Caco-2; Caco-2 monolayers, hinokitiol 500 nM)	toxicity to wild type yeast (wild-type yeast (WT))	hemoglobinization (GFP-positive erythroids) (DMT1-deficient zebrafish; [3])	observable toxicity (DMT1-deficient zebrafish; DMT1-deficient morphant zebrafish, 1 μM)	number of fish with high hemoglobin levels (o-dianisidine) (DMT1-deficient zebrafish)	calcein green fluorescence after reversal of the gradient (J774 macrophages)	calcein green fluorescence after small molecule addition (J774 macrophages)	iron binding [1]	hemoglobinization [2]	EC90 (Caco-2; read-out: Toxicity (EC90), Wild Type Caco-2, WST-8 assay after ≥24 hours of incubation) [µM]
CC(C)c1cccc(=O)c(O)c1 [hinokitiol]	no observable toxicity	kills wild-type yeast (WT) only at high concentrations	promoted hemoglobinization	without observable toxicity	increased the number of fish exhibiting high hemoglobin levels	quenching of calcein green fluorescence was observed	rapidly increased calcein green fluorescence	binds iron (III)	restored hemoglobinization	
CC(C)c1cccc(=O)cc1 [C2deOHino, C2-deoxy hinokitiol]		no biological activity	no effect		no effect	no effect	no effect	does not bind iron; also recorded: cannot bind or transport iron	no effect	> 100
